Test results: US8791048B2, “Herbicidal compositions comprising 4-amino-3-chloro-5-fluoro-6-(4-chloro-2-fluoro-3-methoxyphenyl) pyridine-2-carboxylic acid or a derivative thereof and clomazone” (Dow Agrosciences LLC, priority 2012, dated 2014)

Key:
Assay type in all cases: in vivo
[1] = tested on: DIGSA Digitaria sanguinalis (L.) Scop.; crabgrass, large; assay: Postemergence foliar-applied greenhouse trial, weed control in direct-seeded rice
Excerpt: (§1) Results in Examples I and II are greenhouse trial results.
(§2) Seeds or nutlets of the desired test plant species were planted in a soil matrix prepared by mixing a loam or sandy loam soil (e.g., 28.6 percent silt, 18.8 percent clay, and 52.6 percent sand, with a pH of about 5.8 and an organic matter content of about 1.8 percent) and calcareous grit in an 80 to 20 ratio. The soil matrix was contained in plastic pots with a volume of 1 quart and a surface area of 83.6 square centimeters (cm^2). When required to ensure good germination and healthy plants, a fungicide treatment and/or other chemical or physical treatment was applied. The plants were grown for 8-22 days in a greenhouse with an approximate 14 h photoperiod which was maintained at about 29° C. during the day and 26° C. during the night. Nutrients (Peters Excel® 15-5-15 5-Ca 2-Mg and iron chelate) were applied in the irrigation solution as needed and water was added on a regular basis. Supplemental lighting was provided with overhead metal halide 1000-Watt lamps as necessary. The plants were employed for testing when they reached the first through fourth true leaf stage.
(§3) Treatments consisted of the acid or esters of 4-amino-3-chloro-5-fluoro-6-(4-chloro-2-fluoro-3-methoxy-phenyl)pyridine-2-carboxylic acid (Compound A), each formulated as an SC (suspension concentrate), and various herbicidal components alone and in combination. Forms of compound A were applied on an acid equivalent basis.
(§4) Other herbicidal components were applied on an active ingredient basis and consisted of clomazone formulated as Command® 3ME. Treatment requirements were calculated based upon the rates being tested, the concentration of active ingredient or acid equivalent in the formulation, and a 12 mL application volume at a rate of 187 L/ha.
(§5) For treatments comprised of formulated compounds, measured amounts of compounds were placed individually in 25 mL glass vials and diluted in a volume of 1.25% (v/v) Agri-Dex® crop oil concentrated to obtain 12× stock solutions. […] Application solutions were prepared by adding an appropriate amount of each stock solution (e.g., 1 mL) and diluted to the appropriate final concentrations with the addition of 10 mL of an aqueous mixture of 1.25% (v/v) crop oil concentrate so that the final spray solutions contained 1.25+/−0.05% (v/v) crop oil concentrate.
(§6) All stock solutions and applications solutions were visually inspected for compound compatibility prior to application. Spray solutions were applied to the plant material with an overhead Mandel track sprayer equipped with a 8002E nozzles calibrated to deliver 187 L/ha over an application area of 0.503 m^2 at a spray height of 18 to 20 inches (46 to 50 cm) above average plant canopy height. Control plants were sprayed in the same manner with the solvent blank.
(§7) The treated plants and control plants were placed in a greenhouse as described above and watered by sub-irrigation to prevent wash-off of the test compounds. After approximately 3 weeks, the condition of the test plants as compared with that of the untreated plants was determined visually and scored on a scale of 0 to 100 percent where 0 corresponds to no injury or growth inhibition and 100 corresponds to complete kill.
(§8) Colby's equation was used to determine the herbicidal effects expected from the mixtures (Colby, S. R. 1967. Calculation of the synergistic and antagonistic response of herbicide combinations. Weeds 15:20-22.).
(§9) The following equation was used to calculate the expected activity of mixtures containing two active ingredients, A and B: Expected=A+B−(A×B/100)
(§10) A=observed efficacy of active ingredient A at the same concentration as used in the mixture.
(§11) B=observed efficacy of active ingredient B at the same concentration as used in the mixture.

[2] = tested on: ECHCG Echinochloa crus-galli (L.) Beauv.; barnyardgrass; assay: as above
Excerpt: as §1, §2, §3, §4, §5, §6, §7, §8, §9, §10, §11

[3] = tested on: ECHCO Echinochloa colona (L.) Link; junglerice; assay: as above
Excerpt: as §1, §2, §3, §4, §5, §6, §7, §8, §9, §10, §11

[4] = tested on: IPOHE Ipomoea hederacea Jacq.; morningglory, ivyleaf; assay: as above
Excerpt: as §1, §2, §3, §4, §5, §6, §7, §8, §9, §10, §11

[5] = tested on: LEFCH Leptochloa chinensis (L.) Nees; sprangletop, Chinese; assay: as above
Excerpt: as §1, §2, §3, §4, §5, §6, §7, §8, §9, §10, §11

[6] = tested on: CYPDI Cyperus difformis L. sedge, smallflower umbrella; assay: In-water applied greenhouse trial, weed control in transplanted paddy rice
Procedure: as §1
(§12) Weed seeds or nutlets of the desired test plant species were planted in puddled soil (mud) prepared by mixing a shredded, non-sterilized mineral soil (50.5 percent silt, 25.5 percent clay, and 24 percent sand, with a pH of about 7.6 and an organic matter content of about 2.9 percent) and water at a 1:1 volumetric ratio. The prepared mud was dispensed in 365 mL aliquots into 16-ounce (oz.) non-perforated plastic pots with a surface area of 86.59 square centimeters (cm^2) leaving a headspace of 3 centimeters (cm) in each pot. Rice seeds were planted in Sun Gro MetroMix® 306 planting mixture, which typically has a pH of 6.0 to 6.8 and an organic matter content of about 30 percent, in plastic plug trays. Seedlings at the second or third leaf stage of growth were transplanted into 860 mL of mud contained in 32-oz. non-perforated plastic pots with a surface area of 86.59 cm^2 4 days prior to herbicide application. The paddy was created by filling the headspace of the pots with 2.5 to 3 cm of water. When required to ensure good germination and healthy plants, a fungicide treatment and/or other chemical or physical treatment was applied. The plants were grown for 4-22 days in a greenhouse with an approximate 14 h photoperiod which was maintained at about 29° C. during the day and about 26° C. during the night. Nutrients were added as Osmocote® (17:6:10, N:P:K+minor nutrients) at 2 g per 16-oz. pot and 4 g per 32-oz. pot. Water was added on a regular basis to maintain the paddy flood, and supplemental lighting was provided with overhead metal halide 1000-Watt lamps as necessary. The plants were employed for testing when they reached the first through fourth true leaf stage.
as §3, with “(compound A)” for “(Compound A),”, “concentrate)” for “concentrate),”
(§13) Other herbicidal components were applied on an active ingredient basis and consisted of clomazone formulated as Command® 3ME.
(§14) Treatment requirements for each compound or herbicidal component were calculated based upon the rates being tested, the concentration of active ingredient or acid equivalent in the formulation, an application volume of 2 mL per component per pot, and an application area of 86.59 cm^2 per pot.
(§15) For formulated compounds, a measured amount was placed in an individual 100 or 200 mL glass vial and was dissolved in a volume of 1.25% (v/v) Agri-Dex® crop oil concentrate to obtain application solutions.
(§16) Applications were made by injecting appropriate amounts of the application solutions with a pipetter, individually and sequentially, into the aqueous layer of the paddy. Control plants were treated in the same manner with the solvent blank. Applications were made so that all treated plant material received the same concentrations of acetone and crop oil concentrate.
as §7, with “water was added as needed” for “watered by sub-irrigation”, “maintain a paddy flood.” for “prevent wash-off of the test compounds.”, “weeks” for “weeks,”
as §8, §9
(§17) A=observed efficacy of active ingredient A at the same concentration as used in the mixture. […]

[7] = tested on: CYPRO Cyperus rotundus L. nutsedge, purple; assay: as above
Procedure: as §1, §12
as §3, with “(compound A)” for “(Compound A),”, “concentrate)” for “concentrate),”
as §13, §14, §15, §16
as §7, with “water was added as needed” for “watered by sub-irrigation”, “maintain a paddy flood.” for “prevent wash-off of the test compounds.”, “weeks” for “weeks,”
as §8, §9, §17

[8] = tested on: SCPMA Bolboschoenus maritimus (L.) Palla clubrush, sea; assay: as above
Procedure: as §1, §12
as §3, with “(compound A)” for “(Compound A),”, “concentrate)” for “concentrate),”
as §13, §14, §15, §16
as §7, with “water was added as needed” for “watered by sub-irrigation”, “maintain a paddy flood.” for “prevent wash-off of the test compounds.”, “weeks” for “weeks,”
as §8, §9, §17

[9] = Compound A Acid 0 gae/ha, Clomazone 112 gai/ha
[10] = Compound A Acid 0 gae/ha, Clomazone 224 gai/ha
[11] = Compound A Benzyl Ester 0 gae/ha, Clomazone 56 gai/ha
[12] = Compound A Benzyl Ester 0 gae/ha, Clomazone 112 gai/ha
[13] = Compound A Benzyl Ester 0 gae/ha, Clomazone 224 gai/ha
[14] = Compound A Acid 0 gae/ha, Clomazone 448 gai/ha
[15] = Compound A Acid 4.38 gae/ha, Clomazone 0 gai/ha
[16] = Compound A Acid 8.75 gae/ha, Clomazone 0 gai/ha
[17] = Compound A Acid 17.5 gae/ha, Clomazone 0 gai/ha
[18] = Compound A Acid 16 gae/ha, Clomazone 0 gai/ha
[19] = Compound A Benzyl Ester 4.38 gae/ha, Clomazone 0 gai/ha
[20] = Compound A Benzyl Ester 17.5 gae/ha, Clomazone 0 gai/ha
[21] = Compound A Benzyl Ester 8 gae/ha, Clomazone 0 gai/ha
[22] = Compound A Benzyl Ester 16 gae/ha, Clomazone 0 gai/ha
[23] = Compound A Benzyl Ester 32 gae/ha, Clomazone 0 gai/ha

Structure (SMILES): CC1(C)CON(Cc2ccccc2Cl)C1=O [Clomazone, 2-[(2-chlorophenyl)methyl]-4,4-dimethyl-3-isoxazolidinone]
- Visual Weed Control (%) - 19 DAA Obs ([1]; Compound A Acid 0 gae/ha, Clomazone 56 gai/ha): 0%
- Visual Weed Control (%) - 19 DAA Obs [1, 9]: 0%
- Visual Weed Control (%) - 19 DAA Obs [1, 10]: 0%
- Visual Weed Control (%) - 19 DAA Obs [2, 11]: 10%
- Visual Weed Control (%) - 19 DAA Obs [2, 12]: 10%
- Visual Weed Control (%) - 19 DAA Obs [2, 13]: 10%
- Visual Weed Control (%) - 19 DAA Obs [3, 11]: 10%
- Visual Weed Control (%) - 19 DAA Obs [3, 12]: 10%
- Visual Weed Control (%) - 19 DAA Obs [3, 13]: 10%
- Visual Weed Control (%) - 19 DAA Obs [4, 9]: 20%
- Visual Weed Control (%) - 19 DAA Obs [4, 10]: 20%
- Visual Weed Control (%) - 19 DAA Obs ([5]; Table 1, Compound A Acid 0 gae/ha, Clomazone 56 gai/ha): 0%
- Visual Weed Control (%) - 19 DAA Obs ([5]; Table 1, Compound A Acid 0 gae/ha, Clomazone 112 gai/ha): 0%
- Visual Weed Control (%) - 19 DAA Obs ([5]; Table 1, Compound A Acid 0 gae/ha, Clomazone 224 gai/ha): 15%
- Visual Weed Control (%) - 19 DAA Obs ([5]; Table 2, Compound A Benzyl Ester 0 gae/ha, Clomazone 56 gai/ha): 0%
- Visual Weed Control (%) - 19 DAA Obs ([5]; Table 2, Compound A Benzyl Ester 0 gae/ha, Clomazone 112 gai/ha): 0%
- Visual Weed Control (%) - 19 DAA Obs ([5]; Table 2, Compound A Benzyl Ester 0 gae/ha, Clomazone 224 gai/ha): 15%
- Visual Weed Control (%) - 21 DAA Obs [6, 10]: 20%
- Visual Weed Control (%) - 21 DAA Obs [6, 14]: 40%
- Visual Weed Control (%) - 21 DAA Obs [7, 9]: 0%
- Visual Weed Control (%) - 21 DAA Obs ([7]; Compound A Benzyl Ester 0 gae/ha, Clomazone 448 gai/ha): 0%
- Visual Weed Control (%) - 22 DAA Obs [8, 14]: 25%
- Visual Weed Control (%) - 21 DAA Obs [8, 12]: 0%
- Visual Weed Control (%) - 19 DAA Obs ([8]; Compound A Benzyl Ester 0 gae/ha, Clomazone 670 gai/ha): 0%

Structure (SMILES): COc1c(Cl)ccc(-c2nc(C(=O)O)c(Cl)c(N)c2F)c1F [Compound A Acid, 4-amino-3-chloro-6-(4-chloro-2-fluoro-3-methoxyphenyl)-5-fluoropyridine-2-carboxylic acid]
- Visual Weed Control (%) - 19 DAA Obs [1, 15]: 30%
- Visual Weed Control (%) - 19 DAA Obs [4, 15]: 0%
- Visual Weed Control (%) - 19 DAA Obs [4, 16]: 10%
- Visual Weed Control (%) - 19 DAA Obs [5, 17]: 55%
- Visual Weed Control (%) - 21 DAA Obs [6, 18]: 30%
- Visual Weed Control (%) - 21 DAA Obs [7, 16]: 0%
- Visual Weed Control (%) - 21 DAA Obs [7, 17]: 30%
- Visual Weed Control (%) - 21 DAA Obs ([7]; Compound A Acid 35 gae/ha, Clomazone 0 gai/ha): 85%
- Visual Weed Control (%) - 22 DAA Obs [8, 18]: 0%
- Visual Weed Control (%) - 22 DAA Obs ([8]; Compound A Acid 32 gae/ha, Clomazone 0 gai/ha): 0%
- Visual Weed Control (%) - 22 DAA Obs ([8]; Compound A Acid 64 gae/ha, Clomazone 0 gai/ha): 30%

Structure (SMILES): COc1c(Cl)ccc(-c2nc(C(=O)OCc3ccccc3)c(Cl)c(N)c2F)c1F [Compound A Benzyl Ester]
- Visual Weed Control (%) - 19 DAA Obs [2, 19]: 55%
- Visual Weed Control (%) - 19 DAA Obs [3, 19]: 65%
- Visual Weed Control (%) - 19 DAA Obs [5, 20]: 30%
- Visual Weed Control (%) - 21 DAA Obs [7, 21]: 70%
- Visual Weed Control (%) - 21 DAA Obs [7, 22]: 95%
- Visual Weed Control (%) - 21 DAA Obs [7, 23]: 90%
- Visual Weed Control (%) - 21 DAA Obs [8, 19]: 0%
- Visual Weed Control (%) - 19 DAA Obs [8, 21]: 0%
- Visual Weed Control (%) - 21 DAA Obs ([8]; Compound A Benzyl Ester 8.75 gae/ha, Clomazone 0 gai/ha): 0%
- Visual Weed Control (%) - 19 DAA Obs [8, 22]: 0%
- Visual Weed Control (%) - 21 DAA Obs [8, 20]: 0%
- Visual Weed Control (%) - 19 DAA Obs [8, 23]: 0%
